# In patent US20220409510A1, “Polypeptides And Methods For Improving Skin Conditions” (Interk Peptide Therapeutics Limited, priority 2018, published 2022):
# Assays:
# [1] = system: MM1418-C1 lightly pigmented melanoma cells; test: Melanin content of melanoma cells after UVB radiation; type: cell-based; conditions: 10 μM for 24 hours prior to 2 kJ/m2 UVB; measured 24 hours later; vs untreated UVB cells; FIG. 20
# Experimental: The ability of the polypeptide RSKAKNPLYRRRRRRRRR to alter melanin production was examined.
# In brief, MM1418-C1 lightly pigmented melanoma cells were grown in 24 well culture plates and treated with 10 μM RSKAKNPLYRRRRRRRRR (“IK-3”) for 24 hours prior to being exposed to 2 kJ/m2 UVB radiation. Controls (not treated with RSKAKNPLYRRRRRRRRR) labelled “Con” and “UVB”, respectively, were exposed to either 0 or 2 kJ/m2 UVB radiation. Cell groups were returned to the incubator for 24 hours and then the levels of melanin and protein in the cells were measured spectrophotometrically. In each experiment triplicate samples were measured. Data shown in FIG. 19 indicate the average values±SEM (μg melanin/mg cell protein) exposed to 0 or 2 kJ/m2 UVB which had been pre-treated with 0 or 10 μM of RSKAKNPLYRRRRRRRRR 24 hours prior to being exposed to UVB radiation. The t-test (2-tailed) was used to determine statistical significance, *p<0.05, ***p<0.001.
# apoptotic keratinocytes = test: Sunburn (apoptotic) cells in mouse skin after UV-irradiation; type: in vivo, Skh:hr1 hairless mice; conditions: topical 20, 100 or 200 ug in 100 uL immediately after UVR; FIG. 11
# Experimental: UV-induced DNA damage in the form of elevated CPDs can induce mutations in epidermal cells leading to the development of cancer cells. Reduction of CPDs through application of DNA repair enzymes prevents the risk of UV-induced skin cancer and reduce the level of apoptotic cells following UV-induced damage. The number of apoptotic skin cells following UV-irradiation was assessed in accordance with the following protocol.
# Female Skh:hr1 hairless mice were prepared, irradiated and biopsied according to the methods of Example 4. Prior to biopsy, and immediately after irradiation, mice were treated with either a base lotion vehicle (negative control), 11.4 pmol/cm2 of Calcitriol in vehicle (positive control) the polypeptide IK34720 (SEQ ID NO: 3) in water, at 20 ug, 100 ug or 200 ug in a total volume of 100 uL.
# Biopsies were taken from UV-irradiated dorsal skin 3 hrs post-UVR and fixed in Histochoice fixative (Amresco, Solon OH) for 6 h. Skin samples were paraffin-embedded and 5 micrometre sections were cut for all analyses. Sections (24 h after UV) were subjected to routine hematoxylin and eosin staining for visualization of sunburn cells. The stained sections were examined under a Zeiss-Axioplan light microscope at 40× magnification, and the number of sunburn cells per linear millimetre of skin section recorded.
# [2] = system: CPD formation in the skin; test: CPD formation in the skin of mice after acute UV-irradiation; type: in vivo, Skh:hr1 hairless mice; conditions: topical immediately after UVR, doses as Example 4; 3 hours post-UVR; vs vehicle
# Experimental: Female Skh:hr1 hairless mice were exposed to solar simulated UV-irradiation as described above at Example 4. Immediately after irradiation mice were treated topically on the dorsal surface also as described in Example 4. Subsequently, skin was fixed at 3 hours post-UVR, and subjected to immuno-histochemical staining using the antibody directed against thymine dimers (CPD) described above at 10 μg/ml. […] In FIG. 9, dark staining in nuclei indicates the presence of thymine dimers (CPD), and the % area stained is presented. Immunohistology was quantified as per Example 4.
# [3] = system: 8-OHdG formation in the skin; test: UV-induced oxidative stress (8-OHdG/8oxodG immunohistochemistry) in mouse skin; type: in vivo, Skh:hr1 hairless mice; conditions: topical immediately after 3 MED UVR; IK34720 20, 100 or 200 μg, Calcitriol 11.4 pmol/cm2; 3 h post-UVR; vs vehicle
# Experimental: 8-hydroxy-2′-deoxyguanosine or 8-oxo-7,8-dihydro-2′-deoxyguanosine (8-OHdG/8-oxodG) is one of the predominant forms of free radical-induced in oxidative lesions with the concentrations of 8-OHdG within a cell being a measurement of oxidative stress. The role of the polypeptide IK34720 (SEQ ID NO: 3) in UV-induced oxidative stress was assessed using the following protocol.
# Female Skh:hr1 hairless mice were exposed to solar simulated UV-irradiation (UVR) by exposure to one fluorescent UVB tube (Philips TL40W 12R/S, Eindhoven, The Netherlands) in combination with 6 UVA tubes (Hitachi 40W F40T 10/BL, Tokyo, Japan). The UVA and UVB irradiation was filtered through a 0.125 mm cellulose acetate sheet (Grafix Plastics, Cleveland, Ohio) as previously described (Dixon KM et al., Biochem Mol Biol, 2007, 103(3-5):451-6). […]
# Biopsies were taken from UV-irradiated dorsal skin 3 h post-UVR and fixed in Histochoice fixative (Amresco, Solon Ohio) for 6 h. […] Sections were subjected to routine hematoxylin and eosin staining for visualization of sunburn cells at 40× magnification, and the number of sunburn cells per linear millimetre of skin section recorded.
# Levels of 8-oxo-2′-deoxyguanosine (8oxodG) indicative of oxidative stress were detected by immunohistochemistry and image analysis (Dixon KM et al., Cancer Prey Res 2011, 4(9):1485-94) as set out below. […]
sequence,measurement,setting,value
"RSKAKNPLYRRRRRRRRR [IK34720, 18-residue polypeptide: … with a C-terminal polyarginine region of 8 arginines]",melanin content of cells,[1],significantly decreased melanin content
same,number of apoptotic keratinocytes (sunburn cells),apoptotic keratinocytes,reduced the number of apoptotic keratinocytes
same,CPD formation in the skin (CPD nuclei),[2],inhibits CPD formation
same,8-OHdG formation in the skin,[3],inhibits 8-OHdG formation
